In ChEMBL document CHEMBL4004870, “Synthesis of dihydroimidazole tethered imidazolinethiones and their activity as novel antagonists of the nuclear retinoic acid receptor-related orphan receptors (RORs)” (Bioorg Med Chem Lett, 2017):

Legend:
[1] = molecular target: T1, Nuclear receptor ROR-gamma (Mus musculus, UniProt P51450); assay: Antagonist activity at mouse Gal4-fused DBD RORgamma LBD (Pro-261-end) expressed in TRex-CHOK1 cells after 20 hrs by luciferase reporter gene assay; format: cell-based
T1 sequence (P51450 whole entry): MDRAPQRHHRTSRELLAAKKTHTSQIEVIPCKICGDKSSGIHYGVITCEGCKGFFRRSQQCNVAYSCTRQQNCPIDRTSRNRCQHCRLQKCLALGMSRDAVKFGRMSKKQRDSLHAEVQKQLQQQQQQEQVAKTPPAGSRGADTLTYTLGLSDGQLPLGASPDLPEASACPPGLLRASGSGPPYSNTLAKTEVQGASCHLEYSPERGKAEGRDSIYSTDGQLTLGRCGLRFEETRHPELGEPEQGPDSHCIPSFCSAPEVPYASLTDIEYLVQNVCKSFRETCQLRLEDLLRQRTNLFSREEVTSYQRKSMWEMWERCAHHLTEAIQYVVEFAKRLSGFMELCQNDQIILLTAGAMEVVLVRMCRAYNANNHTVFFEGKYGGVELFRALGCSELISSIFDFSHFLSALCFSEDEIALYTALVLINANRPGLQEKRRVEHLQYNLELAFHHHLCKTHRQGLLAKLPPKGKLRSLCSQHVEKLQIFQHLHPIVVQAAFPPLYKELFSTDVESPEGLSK

[2] = molecular target: T2, Nuclear receptor ROR-beta (Rattus norvegicus, UniProt P45446); assay: Antagonist activity at rat Gal4-fused DBD RORbeta LBD (Pro-205-end) expressed in TRex-CHOK1 cells after 20 hrs by luciferase reporter gene assay; format: cell-based
T2 sequence (P45446 whole entry): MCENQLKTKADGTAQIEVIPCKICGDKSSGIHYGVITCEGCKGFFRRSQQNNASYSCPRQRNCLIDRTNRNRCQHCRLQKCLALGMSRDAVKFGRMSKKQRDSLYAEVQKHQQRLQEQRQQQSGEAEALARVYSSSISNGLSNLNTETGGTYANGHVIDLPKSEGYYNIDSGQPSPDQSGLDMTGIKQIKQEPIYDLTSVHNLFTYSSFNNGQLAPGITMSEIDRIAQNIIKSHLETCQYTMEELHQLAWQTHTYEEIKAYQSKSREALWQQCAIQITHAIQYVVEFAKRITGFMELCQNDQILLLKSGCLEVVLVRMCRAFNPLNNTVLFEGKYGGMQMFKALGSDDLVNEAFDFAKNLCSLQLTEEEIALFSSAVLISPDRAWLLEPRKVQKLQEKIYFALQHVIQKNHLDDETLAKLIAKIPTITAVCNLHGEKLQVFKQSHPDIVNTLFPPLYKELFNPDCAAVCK

| IC50 [1] [µM] | IC50 [2] [µM] | SMILES |
| --- | --- | --- |
| 9.3 | 17 | CCCC1=N[C@@H](CCCCN2C[C@H](Cc3ccccc3)N(CCC3CC4CCC3C4)C2=S)CN1 (stereo not given in full) |
| 5.6 | 9.1 | S=C1N(CCCC[C@H]2CNC(CCC3CCCC3)=N2)C[C@H](Cc2ccccc2)N1CCc1ccccc1 |
| 10.2 | 17.5 | CCCC[C@H]1CN(CCCC[C@H]2CNC(CCC)=N2)C(=S)N1CCc1ccccc1 |
| 13.7 | 21.1 | CCCC1=N[C@@H](CCCCN2C[C@H](Cc3ccccc3)N(CC3CCC(C)CC3)C2=S)CN1 (stereo not given in full) |
| 6.4 | 10.2 | CCCC1=N[C@@H](CCCCN2C[C@H](Cc3ccccc3)N(CCCC3CCCC3)C2=S)CN1 |

More lines, now with the values behind:

| SMILES | IC50 [1] [µM] | IC50 [2] [µM] |
| --- | --- | --- |
| Fc1cccc(CC2=N[C@@H](CCCCN3C[C@H](Cc4ccccc4)N(CCc4ccccc4)C3=S)CN2)c1 | 6.6 | 12.4 |
| CCCC1=N[C@@H](CCCCN2C[C@@H](C(C)(C)C)N(CCc3ccccc3)C2=S)CN1 | 11.8 | 22.3 |
| COc1cccc(CC2=N[C@@H](CCCCN3C[C@H](Cc4ccccc4)N(CCc4ccccc4)C3=S)CN2)c1 | 6.3 | 8.4 |
| C=CCC1=N[C@@H](CCCCN2C[C@H](Cc3ccccc3)N(CCc3ccccc3)C2=S)CN1 | 10.2 | 14.3 |
| CC(CC1=N[C@@H](CCCCN2C[C@H](Cc3ccccc3)N(CCc3ccccc3)C2=S)CN1)c1ccccc1 (stereo not given in full) | 6.5 | 10.9 |
| CCCC1=N[C@@H](CCCCN2C[C@H](Cc3ccccc3)N(CCC3C4CC5CC(C4)CC3C5)C2=S)CN1 (stereo not given in full) | 7.9 | 10.7 |
| C/C=C/C1=N[C@@H](CCCCN2C[C@H](Cc3ccccc3)N(CCc3ccccc3)C2=S)CN1 | 5.8 | 12.5 |
| Fc1ccc(CC2=N[C@@H](CCCCN3C[C@H](Cc4ccccc4)N(CCc4ccccc4)C3=S)CN2)cc1 | 7.7 | 12.4 |
| Cc1cccc(CC2=N[C@@H](CCCCN3C[C@H](Cc4ccccc4)N(CCc4ccccc4)C3=S)CN2)c1 | 6.3 | 9 |
| S=C1N(CCCC[C@H]2CNC(CC3CCCCC3)=N2)C[C@H](Cc2ccccc2)N1CCc1ccccc1 | 5.1 | 8.3 |
